Like-named read-outs stand apart in the source and are kept apart here.
Assays:
[1] = test system: d-Amphetamine-induced hyperlocomotion in rats; assay: d-Amphetamine-induced hyperlocomotion in rats: potentiation of the effect of MP-10; assay type: in vivo, rat; settings: d-amphetamine (1.25 mg/kg, s.c.) + MP-10 (2.5 mg/kg, s.c.)
[2] = target: Rat recombinant PDE10A (rPDE10A2) (Rattus norvegicus (Rat), UniProt Q9QYJ6); assay: In vitro assay PDE10A (SPA, 3H-cAMP); assay type: biochemical
[3] = test system: Apomorphine-induced agitation in rats; assay: Inhibition of apomorphine-induced agitation in rats in combination with MP-10; assay type: in vivo, rat; settings: SC, MP-10 (0.63 mg/kg) + apomorphine (1.0 mg/kg) i.v.
Protocol: Inhibition of Apomorphine-induced Agitation in Rats in combination with MP-10 but the animals were simultaneously challenged with MP-10 (0.63 mg/kg) in addition to apomorphine (1.0 mg/kg) via one injection (2 ml/kg, i.v.), at a fixed time interval (standard 1 h) after s.c. or p.o. dosing of test compound or solvent. Twelve times, every 5 min, the intensity of agitation was scored 0 to 3.

[4] = test system: Apomorphine-induced agitation in rats; assay: Inhibition of apomorphine-induced agitation in rats (APO); settings: SC; for Max effect (lowest median cumulative agitation score): at the dose at max effect; for LAD (lowest active dose): lowest dose at which >=67% tested animals respond

Chain of Rat recombinant PDE10A (rPDE10A2) (Q9QYJ6 whole entry): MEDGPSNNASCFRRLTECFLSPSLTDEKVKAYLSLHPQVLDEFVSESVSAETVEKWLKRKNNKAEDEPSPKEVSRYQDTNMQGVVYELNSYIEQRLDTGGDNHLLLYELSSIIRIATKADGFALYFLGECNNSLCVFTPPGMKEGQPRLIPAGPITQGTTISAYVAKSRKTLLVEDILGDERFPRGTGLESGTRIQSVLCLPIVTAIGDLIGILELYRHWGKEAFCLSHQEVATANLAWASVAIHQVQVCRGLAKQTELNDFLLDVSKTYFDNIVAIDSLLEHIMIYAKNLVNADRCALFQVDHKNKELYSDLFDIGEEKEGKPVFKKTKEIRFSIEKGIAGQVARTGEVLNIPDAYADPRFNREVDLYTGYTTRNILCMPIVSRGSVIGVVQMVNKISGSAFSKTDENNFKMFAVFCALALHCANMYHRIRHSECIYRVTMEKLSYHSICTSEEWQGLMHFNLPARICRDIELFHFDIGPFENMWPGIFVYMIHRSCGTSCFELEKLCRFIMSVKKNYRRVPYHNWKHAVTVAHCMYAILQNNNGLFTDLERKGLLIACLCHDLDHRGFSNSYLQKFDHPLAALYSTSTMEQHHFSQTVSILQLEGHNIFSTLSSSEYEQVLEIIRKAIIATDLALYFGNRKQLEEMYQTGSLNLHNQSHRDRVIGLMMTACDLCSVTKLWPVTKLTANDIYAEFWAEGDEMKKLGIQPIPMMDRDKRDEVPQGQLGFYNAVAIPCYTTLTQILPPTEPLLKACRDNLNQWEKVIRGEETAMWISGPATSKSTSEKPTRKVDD

Structure (SMILES): Cc1nc2ccc(CN3CCOCC3)cc2n2c(-c3cc(OC(C)C)ccc3Cl)nnc12 [Compound B-6]
- Distance Total <2500 cm Effect ([1]; PO, Time -60, dose 10): 5033 cm
- Distance Total <2500 cm Effect ([1]; SC, Time -60, dose 0.63): 3096 cm
- Distance Total <2500 cm Effect ([1]; SC, Time -60, dose 2.5): 1206 cm
- Distance Total <2500 cm Effect ([1]; SC, Time -60, dose 10): 743.7 cm
- PIC50 PDE10 ([2]; -log IC50 expressed in mol/L): 5.73
- Inh. of agitation < 10 Effect (cumulative agitation score) ([3]; Time 60, dose 2.5): 13
- Inh. of agitation < 10 Effect (cumulative agitation score) ([3]; Time 60, dose 10): 1

Structure (SMILES): CCNCc1ccc2nc(C)c3nnc(-c4cc(OCC)ccc4Cl)n3c2c1 [Compound B-22a]
- PIC50 PDE10 [2]: 6.04

Structure (SMILES): CCCCOc1cncc(-c2nnc3c(C)nc4ccc(CNC)cc4n23)c1 [Compound B-28]
- PIC50 PDE10 [2]: <5

Structure (SMILES): Cc1nc2ccc(CN(C)C)cc2n2c(-c3cc(OC(C)C)ccc3Cl)nnc12 [Compound B-17]
- Distance Total <2500 cm Effect ([1]; SC, Time -60, dose 2.5): 4133 cm
- Distance Total <2500 cm Effect ([1]; SC, Time -60, dose 10): 1721 cm
- PIC50 PDE10 [2]: 5.8
- Inh. of agitation < 10 Effect (cumulative agitation score) ([3]; Time 60, dose 10): 12

Structure (SMILES): CCNCc1ccc2nc(C)c3nnc(-c4cncc(OCC5CC5)c4)n3c2c1 [Compound B-32]
- PIC50 PDE10 [2]: <5

Structure (SMILES): CCCOc1ccc(Cl)c(-c2nnc3c(C)nc4ccc(CN5CCOCC5)cc4n23)c1 [Compound B-8]
- PIC50 PDE10 ([2]; -log IC50 expressed in mol/L): 6.49
- Dose at max effect [4]: 10
- Max effect (lowest median cumulative agitation score) [4]: 23
- LAD (lowest active dose) [4]: >10

Structure (SMILES): COc1cncc(-c2nnc3c(C)nc4ccc(CN5CCOCC5)cc4n23)c1 [Compound B-12]
- PIC50 PDE10 ([2]; -log IC50 expressed in mol/L): 6.57
- Dose at max effect [4]: 10
- Max effect (lowest median cumulative agitation score) [4]: 21
- LAD (lowest active dose) [4]: >10

Structure (SMILES): CCCCOc1cncc(-c2nnc3c(C)nc4ccc(CNC(C)C)cc4n23)c1 [Compound B-23]
- PIC50 PDE10 [2]: <5

Structure (SMILES): CCCOc1ccc(Cl)c(-c2nnc3c(C)nc4ccc(CNCC)cc4n23)c1 [Compound B-14]
- PIC50 PDE10 [2]: 5.75

Structure (SMILES): Cc1nc2ccc(CN3CCOCC3)cc2n2c(-c3cncc(OCC4CC4)c3)nnc12 [Compound B-26]
- Distance Total <2500 cm Effect ([1]; SC, Time -60, dose 2.5): 3061 cm
- Distance Total <2500 cm Effect ([1]; SC, Time -60, dose 10): 1653 cm
- PIC50 PDE10 ([2]; -log IC50 expressed in mol/L): 5.44
- Inh. of agitation < 10 Effect (cumulative agitation score) ([3]; Time 60, dose 10): 17

Structure (SMILES): CCCCOc1ccc(Cl)c(-c2nnc3c(C)nc4ccc(CNC)cc4n23)c1 [Compound B-25]
- Distance Total <2500 cm Effect ([1]; SC, Time -60, dose 10): 3921 cm
- PIC50 PDE10 [2]: 5.04

Structure (SMILES): Cc1nc2ccc(CN3CCOCC3)cc2n2c(-c3c(F)cccc3Cl)nnc12 [Compound B-5, 1-(2-Chloro-6-fluorophenyl)-4-methyl-8-(morpholin-4-ylmethyl) [1,2,4]triazolo[4,3-a]quinoxaline]
- Dose at max effect [4]: 40
- Max effect (lowest median cumulative agitation score) [4]: 1
- LAD (lowest active dose) [4]: 0.63

Structure (SMILES): CCCCOc1cncc(-c2nnc3c(C)nc4ccc(CNCC)cc4n23)c1 [Compound B-21]
- PIC50 PDE10 [2]: <5

Structure (SMILES): CCNCc1ccc2nc(C)c3nnc(-c4cc(OC(C)C)ccc4Cl)n3c2c1 [Compound B-19]
- PIC50 PDE10 [2]: 5.07

Structure (SMILES): CCCOc1cncc(-c2nnc3c(C)nc4ccc(CNCC)cc4n23)c1 [Compound B-24]
- PIC50 PDE10 [2]: <5
